We go through one substance from US20260108588A1, “A COMPLEX COMPRISING A ALPHA-LACTALBUMIN AND A FATTY ACID OR LIPID FOR USE IN THE TREATMENT OR PREVENTION OF CANCER” (LINNANE PHARMA AB, priority 2022, published 2026).

Assay [1] has as its system intestinal gene expression. The experiment in a line: Transcriptomic analysis of intestinal tissue of Apc^Min/+ mice. Type of assay: in vivo.
Description: Approximately 5 mg of tissue was homogenized using a Tissuelyser (Qiagen) and total RNA was extracted using the RNeasy kit (Qiagen), amplified using a GeneChip 3'IVT Express Kit, hybridized onto Mouse Genome 430 PM array strips, and scanned using the GeneAtlas system (Affymetrix). Data was normalized using Robust Multi Average implemented in the Transcriptome Analysis Console software (v.4.0.1.36, Applied Biosystems, ThermoFisher Scientific). Relative expression was analyzed by ANOVA using the empirical Bayes method, and genes with an absolute fold change >1.5 or 2.0 were considered differentially expressed. Heat maps were constructed using Graphpad Prism 9 and differentially expressed genes were analyzed using Ingenuity Pathway Analysis software (IPA, Qiagen).
Assay [2] deals with VEGF, Ki67, Cyclin D1 and β-catenin. The experiment in a line: Immunohistochemistry of intestinal sections for tumor markers. Type of assay: in vivo, mice. Conditions: vs sham. The source says: Swiss rolls of longitudinally opened intestinal segments were fixed overnight in 10% neutral buffered formalin. Samples were embedded in paraffin and 5 μm thick sections were further processed for histology and immunohistochemistry using antibodies for bovine alpha-Lactalbumin (ThermoFisher Scientific, Cat #A10-128A), β-catenin (CellSignaling, Cat #9562), Cyclin D1 (ThermoFisher Scientific, Cat #SC8396), Ki-67 (BD Biosciences, Cat #556003), VEGF (Abcam, Cat #ab46154), PD-1 (Abcam, Cat #ab214421) and TTF-1 (Abcam, Cat #ab227652) as previously described^28 with slight modifications. Citrate buffer (Dako Target Retrieval Solution, Agilent, Cat #S1699) was used for antigen retrieval for Cyclin D1, Ki-67, VEGF, bovine alpha-Lactalbumin and β-catenin staining. EDTA buffer (Abcam, Cat #ab64216) was used for antigen retrieval for TTF-1 staining. Immunohistochemistry was quantified by ImageJ. For Hematoxylin-Eosin (H&E) staining, Hematoxylin (ThermoFisher Scientific, Cat #7211) was used followed by Eosin-Y (ThermoFisher Scientific, Cat #7111) for counterstaining. Images were captured using the AX10 microscope or the Hamamatzu Nanozoomer scanner (Carl Zeiss) and the DAB-positive beta-catenin antibody fields (4-10) for each organ cross-sections were quantified by ImageJ.

Assay [3] concerns Wnt/β-catenin signaling pathway. The experiment in a line: Gene expression analysis of lungs, livers and kidneys of Apc^Min/+ mice. Type of assay: in vivo. Conditions: BAMLET treated compared to sham treated Apc^Min/+ mice.
The nature of assay [4]: Giant unilamellar vesicle experiments, membrane response. Particulars: 21 μM BAMLET, one hour. As to the method: Giant unilamellar vesicles (GUVs) were formed by hydrogel-assisted swelling according to established protocols^29,30, with modifications previously described^31. Briefly, glass cover slips were sonicated in 1 M NaOH solution (30 minutes), rinsed in Milli-Q water (three times) and further sonicated (30 minutes). Coverslips were plasma etched (1 min) using a BD-20 laboratory corona treater (Electro Technic Products Inc.) to render the surface clean and hydrophilic. A thin film of 1% (w/v) solution of molten ultra-low gelling temperature type IX-A agarose (Sigma) was deposited on the coverslip to provide a reaction bed for GUV formation. The cover slips were placed in AttoFluor® cell chambers (ThermoFisher Scientific). Following, 25 μl of egg phosphatidylcholine (#840051P—Avanti Polar Lipids) in chloroform (25 mg/ml) doped with 4% v/v rhodamine C (1 mg/ml, Sigma) were deposited onto the gelled agarose surface, and the solvent evaporated with nitrogen gas. The lipid-hydrogel film was rehydrated with 200 mM sucrose in PBS, pH 7.2 for one hour and then transferred into 200 mM glucose in PBS, pH 7.2 for sedimentation. GUVs were allowed to settle overnight before seeded on the coverslips for visualization after treatment with 21 μM BAMLET for one hour.

The test system of assay [5] is DLD1 colorectal adenocarcinoma cells. The experiment in a line: TUNEL assay. The assay is classed as cell-based, human. Conditions: 7 μM, 21 μM and 35 μM, one hour. As to the method: DNA fragmentation was detected using the terminal deoxynucleotidyl transferase dUTP nick end-labeling (TUNEL) assay (Click-IT TUNEL Alexa Fluor 488 imaging assay kit, ThermoFisher Scientific, #C10245). DLD1 cells were seeded in 8-well chamber slide (2×10^4 cells/well) cultured overnight (37° C., 5% CO2) and incubated with BAMLET 7 μM, 21 μM and 35 μM for one hour in serum-free RPMI-1640 at 37° C. Cells were fixed (2% PFA, 15 minutes), permeabilized (0.25% Triton X-100 in PBS, 20 minutes) and incubated with TUNEL reaction mixture containing TdT for 60 minutes at 37° C. After the TUNEL reaction, cells were incubated with Click-iT reaction mixture for 30 minutes. Cells were counterstained with Hoechst 33342 (1:1000, 15 minutes, ThermoFisher Scientifi, Cat #62249), mounted in Fluoromount aqueous mounting media (Sigma, Cat #4680), and examined by LSM 900 confocal microscopy (Carl Zeiss). Fluorescence intensities were quantified by ImageJ.

Assay [6] concerns DLD1 cells. The experiment in a line: Cell death assays (Prestoblue and ATPlite). Type of assay: cell-based, human. Particulars: 7, 21 and 35 μM; Prestoblue and ATPlite. As to the method: Two assays were used as an indirect measure of cell death. Luminescence-based ATPlite™ kit (Perkin Elmer) as well as the Prestoblue assay (ThermoFisher Scientific). Cells (5×10^4 cells/well) were seeded in serum-free RPMI-1640 on 96-well plates and treated with BAMLET and alpha1-oleate at different concentration (7, 21, and 35 μM) and incubated for one hour. Afterward, FCS was added at concentration of 5% and the cells were continuously incubated for two hours at 37° C., at the end of which the two kits were used according to manufactures' instructions. Luminescence and fluorescence were measured using a microplate reader (Infinite F200, Tecan). The experiments were performed in triplicate and repeated twice.
Background: ATP-based viability assays read luminescence as a measure of living cells.

In assay [7] the test system is DLD1 cells. The assay is described as follows: Colony assay. Particulars: DLD1, 7, 21 and 35 μM. The assay is classed as cell-based, human. As for the experimental part: (§1) Cells were seeded on 12-well plates (1×10^3 cells/well) and incubated overnight. Cells were treated with different complexes: BAMLET (7, 21, and 35 μM) or alpha1-oleate (7, 21, and 35 μM) in serum-free media and incubated for one hour at 37° C., 5% CO2. The incubation was continued after the addition of FCS to the media. On day ten post-treatment, the cells were washed once and fixed with cold methanol (300 μl) for 15 minutes on ice. Finally, colonies of cells were stained with hematoxylin (ThermoFisher Scientific, Cat #7211) for five minutes and images were captured under a dissecting microscope (Carl Zeiss). The experiment was repeated twice for each cell line.

Another assay relates to HT29 cells. The experiment in a line: Colony assay. Type of assay: cell-based, human. Conditions: HT29, 7, 21 and 35 μM. As to the method: as §1

For BAMLET, the “intestinal gene expression compared to healthy C57BL/6 mice” value in assay [1] (BAMLET treated Apc^Min/+ mice in contrast to sham, including cancer related biofunctions) is on record as “significantly less affected”. In addition, the “number of genes regulated at all time points (shared genes)” value in assay [1] (BAMLET treated vs sham, cut-off fold change ≥2.0) came out at 2339. Also, the cancer-related biofunctions entry in assay [1] (BAMLET treated vs sham, gavage or drinking water, shared genes) is “inhibited”. Besides, the “Wnt/β-catenin signaling (network analysis of shared genes)” value in assay [1] (genes regulated at all time points (2w pt, 5w pt, 8w dw), vs sham) is given as “inhibited”. In addition, the “Wnt/β-catenin signaling pathway, intestinal gene expression” value in assay [1] (long-term follow up, BAMLET in drinking water) is “inhibited”. Further, in assay [1] (long-term, BAMLET treated Apc^Min/+ mice compared to healthy C57BL/6 mice), the “PD-1 pathway activation (gene expression)” value is on record as “reduced PD-1 pathway activation”. Further, the “PD-1 pathway (gene expression)” value in assay [1] (long-term, direct comparison BAMLET treated vs sham) was “most strongly down-regulated”. Moreover, the “CD44 and its ligand SPP1 (osteopontin) expression” value in assay [1] (tumor microenvironment pathway, BAMLET vs sham) is reported as “most strongly inhibited genes in the tumor microenvironment pathway”. In assay [1] (whole intestinal tissue), the “principal component analysis of mRNA profiles” value is “formed a cluster near the healthy mice and distant from the sham group”. Moreover, the “expression of tumor markers VEGF, Ki67, Cyclin D1 and β-catenin” value in assay [2] (intestinal sections, five weeks post gavage and eight weeks drinking water) was “less strongly expressed”. Besides, the “β-catenin staining of intestinal sections” value in assay [2] (long-term BAMLET in drinking water) was “markedly reduced”. For the same substance, in assay [3], the “Wnt/β-catenin signaling pathway in lungs, livers and kidneys (gene expression)” value is reported as “down-regulated”. In assay [4], the membrane response result is “triggered rapid blebbing, tubulation and eventual vesicle division”. The “TUNEL staining (DNA strand breaks)” value in assay [5] is listed as “Dose-dependent increase”. For the same substance, the cell viability entry with DLD1 cells [6] is reported as “rapid dose-dependent reduction”. Also, the “colony-forming cells after ten days” value in the assay with DLD1 cells [7] and with HT29 cells was “lasting effect” each time.
